Measured values reported in patent publication US10059655B2, “Lipids and lipid compositions for the delivery of active agents” (priority 2013, dated 2018).

Assays:
[1] = test system: mEPO; assay: Mouse EPO ELISA after IV injection of encapsulated mEPO mRNA; assay type: in vivo; conditions: 0.2 mpk, ob/ob mice, @ 24 h
Description: A rat anti-mouse Erythropoietin antibody is coated on 384-well white microtiter plates overnight, then blocked for assay. Then, plasma samples are diluted in a casein-based sample diluent and incubated on the plate with buffer controls and mouse EPO standards. The plate is then washed to remove unbound material. A biotinylated rat anti-mouse Erythropoietin antibody is then added to the plate to detect mouse EPO bound by the capture antibody. The plate is washed again and a streptavidin-conjugated horseradish peroxidase reagent is incubated on the plate. A third wash step is performed and a chemiluminescent reagent is added to the plate and immediately read by a capable plate reader using all wavelengths and a 50 millisecond integration time. Unknown samples are interpolated off the mouse EPO standard curve.

[2] = Percentage of encapsulated RNA and RNA concentration of replicon liposomes (Quant-iT RiboGreen); assay type: physicochemical; conditions: for %E (% entrapment) 1st IM / Conc (Concentration of RNA) 1st IM: RSV-F replicon RNA LNP prepared for 1st immunization; for %E (% entrapment) 2nd IM / Conc (Concentration of RNA) 2nd IM: RSV-F replicon RNA LNP prepared for 2nd immunization
Description: RNA was encapsulated in liposomes made essentially by the method of Geall et al. (2012) PNAS vol. 109 (36): 14604-14609, Jeffs et al. (2005) Pharmaceutical Research 22 (3):362-372, and Maurer et al. (2001) Biophysical Journal, 80: 2310-2326 The liposomes were made of 10% DSPC (zwitterionic), 40% cationic lipid, 48% cholesterol and 2% PEG-conjugated DMG (2 kDa PEG). These proportions refer to the % moles in the total liposome.
Briefly, lipids were dissolved in ethanol (2 ml), a RNA replicon was dissolved in buffer (2 ml, 100 mM sodium citrate, pH 6) and these were mixed with 2 ml of buffer followed by 1 hour of equilibration. The mixture was then dialized overnight against 1×PBS. The resulting product contained liposomes, with ˜70-95% encapsulation efficiency. For in vitro and in vivo experiments formulations were diluted to the required RNA concentration with 1×PBS.
The percentage of encapsulated RNA and RNA concentration were determined by Quant-iT RiboGreen RNA reagent kit (Invitrogen), following manufacturer's instructions. The ribosomal RNA standard provided in the kit was used to generate a standard curve. Liposomes were diluted 10× or 100× in 1×TE buffer (from kit) before addition of the dye. Separately, liposomes were diluted 10× or 100× in 1×TE buffer containing 0.5% Triton X before addition of the dye (to disrupt the liposomes and thus to assay total RNA). Thereafter an equal amount of dye was added to each solution and then ˜180 μL of each solution after dye addition was loaded in duplicate into a 96 well tissue culture plate. The fluorescence (Ex 485 nm, Em 528 nm) was read on a microplate reader. All liposome formulations were dosed in vivo based on the encapsulated amount of RNA.
% entrapment (% E), Concentration of RNA (Conc), particle size measured by DLS, and polydispersity reported by DLS of LNPs prepared with different cationic lipids

Row | SMILES | Expression of protein following IV injection of encapsulated mRNA: mEPO [1] [ng/mL] | %E (% entrapment) 1st IM [2] [%] | Conc (Concentration of RNA) 1st IM [2] [ng/mL] | %E (% entrapment) 2nd IM [2] [%] | Conc (Concentration of RNA) 2nd IM [2] [ng/mL]
1 | CCCCC/C=C\C/C=C\CCCCCCCC(=O)OCC(COC(=O)CCCCCCC/C=C\C/C=C\CCCCC)COC(=O)C1(C)CCN(C)C1 (stereo not drawn) [Example 1, (9Z,9′Z,12Z,12′Z)-2-(((1,3-dimethylpyrrolidine-3-carbonyl)oxy)methyl)propane-1,3-diyl bis(octadeca-9,12-dienoate)] | 22.5 | 96.21 | 10352 | 91.99 | 11279
2 | CCCCC/C=C\C/C=C\CCCCCCCC(=O)OCC(COC(=O)CCC(OCCCCCCCC)OCCCCCCCC)COC(=O)OCC1CCCN(CC)C1 (stereo not drawn) [Example 15, (9Z,12Z)-3-((4,4-bis(octyloxy)butanoyl)oxy)-2-(((((1-ethylpiperidin-3-yl)methoxy)carbonyl)oxy)methyl)propyl octadeca-9,12-dienoate] |  | 94.26 | 10203 | 96.64 | 10091
